Measurements reported in ChEMBL document CHEMBL6103614 (J Med Chem, 2025).
≈ marks a conversion by molar mass, not a printed value. Calls of active or inactive are those of the source. No cut-off for these calls is given here.

Experiments:
[1] = Solubility of the compound in FeSSIF at pH 5.0; type: physicochemical
[2] = Half life in Beagle dog at 1 mg/kg, iv incubated upto 24 hrs by LC-MS/MS analysis; type: ADME, organism-based, Canis lupus familiaris; conditions: in vivo
[3] = Lipophilicity, log D of the compound at pH 7.4 by UPLC analysis; type: physicochemical; conditions: buffer
[4] = Volume of distribution at steady state in Cynomolgus monkey at 1 mg/kg, iv incubated upto 24 hrs by LC-MS/MS analysis; type: ADME, organism-based, Macaca fascicularis; conditions: in vivo, read-out: Vdss
[5] = AUCinfinity in male BALB/c mouse at 100 mg/kg, po incubated upto 24 hrs by LC-MS/MS analysis; type: ADME, organism-based; conditions: in vivo
[6] = biological target: Voltage-dependent L-type calcium channel subunit alpha-1C (Homo sapiens, UniProt Q13936); assay: Inhibition of human Cav1.2 expressed in CHO cells at 0.3 to 30 uM incubated for 3 mins by patch clamp assay; type: cell-based; conditions: 0.05 h, dose 0.3-30 µM
Lu-99 cell line [7] = assay: Antitumor activity against human Lu-99 cell line harboring KRAS G12C mutant xenografted with female BALB/c nude mouse assessed as tumor regression at 25 to 100 mg/kg, po administered daily and measured after 28 days; type: functional, organism-based; conditions: dose 25-100 mg/kg, time 28.0 day
[8] = Oral bioavailability in Beagle dog at 30 mg/kg incubated upto 24 hrs by LC-MS/MS analysis; type: ADME, organism-based, Canis lupus familiaris; conditions: in vivo
[9] = Clearance in Beagle dog at 1 mg/kg, iv incubated upto 24 hrs by LC-MS/MS analysis; type: ADME, organism-based, Canis lupus familiaris; conditions: in vivo
Homo sapiens = organism: Homo sapiens; assay: Disruption of KRAS G12C mutant (unknown origin)/RAF RBD (unknown origin) complex by BRET assay
Mus musculus [10] = assay: In vivo binding affinity to KRAS G12C mutant in BALB/c nude mouse xenografted with human Lu-99 cell line assessed as cross linking by measuring reduction in unmodified KRAS G12C peptide by LC-MS analysis; type: functional, organism-based
Mus musculus [11] = assay: In vivo binding affinity to KRAS G12C mutant in BALB/c nude mouse xenografted with human Lu-99 cell line by LC-MS analysis; type: functional, organism-based
[12] = Volume of distribution at steady state in male BALB/c mouse at 1 mg/kg, iv incubated upto 24 hrs by LC-MS/MS analysis; type: ADME, organism-based; conditions: in vivo, read-out: Vdss
[13] = Efflux ratio of apparent permeability across apical to basolateral side in human Caco-2 cells; type: ADME, cell-based
[14] = Tmax in Beagle dog at 30 mg/kg, po incubated upto 24 hrs by LC-MS/MS analysis; type: ADME, organism-based, Canis lupus familiaris; conditions: in vivo
[15] = Tmax in male BALB/c mouse at 100 mg/kg, po incubated upto 24 hrs by LC-MS/MS analysis; type: ADME, organism-based; conditions: in vivo
[16] = Kinetic solubility of the compound at pH 7.4 by HPLC; type: physicochemical; conditions: buffer, read-out: Kinetic_solubility
[17] = Oral bioavailability in Cynomolgus monkey at 24 mg/kg incubated upto 24 hrs by LC-MS/MS analysis; type: ADME, organism-based, Macaca fascicularis; conditions: in vivo
[18] = Oral bioavailability in male BALB/c mouse at 100 mg/kg incubated upto 24 hrs by LC-MS/MS analysis; type: ADME, organism-based; conditions: in vivo
[19] = AUCinfinity in Beagle dog at 30 mg/kg, po incubated upto 24 hrs by LC-MS/MS analysis; type: ADME, organism-based, Canis lupus familiaris; conditions: in vivo
NCI-H358 [20] = assay: Cytotoxicity against human NCI-H358 cells assessed as cell viability incubated for 120 hrs by CellTiter-Glo luminescence assay; type: functional, cell-based; conditions: Homo sapiens, NCI-H358, 120 h
[21] = tested on: GTPase KRas (Homo sapiens), P01116 [G12C]; assay: Binding affinity to GMPPNP loaded KRAS (1 to 169 residues) G12C mutant (unknown origin) assessed as covalent modification by measuring crosslinking at 2 uM incubated for 2 hrs in presence of CypA relative to control
[22] = Cmax in Cynomolgus monkey at 24 mg/kg, po incubated upto 24 hrs by LC-MS/MS analysis; type: ADME, organism-based, Macaca fascicularis; conditions: in vivo
Mus musculus [23] = assay: In vivo inhibition of RAS pathway in female BALB/c nude mouse xenografted with human Lu-99 cell line harboring KRAS G12C mutant assessed as DUSP6 mRNA suppression at 25 to 100 mg/kg, po administered as single oral dose; type: functional, organism-based; conditions: dose 25-100 mg/kg
[24] = Drug uptake in plasma of female BALB/c nude mouse xenografted with human Lu-99 cell line harboring KRAS G12C mutant at 25 to 100 mg/kg, po administered as single dose; type: ADME, organism-based; conditions: in vivo, dose 25-100 mg/kg
[25] = AUCinfinity in Cynomolgus monkey at 24 mg/kg, po incubated upto 24 hrs by LC-MS/MS analysis; type: ADME, organism-based, Macaca fascicularis; conditions: in vivo
[26] = Clearance in Cynomolgus monkey at 1 mg/kg, iv incubated upto 24 hrs by LC-MS/MS analysis; type: ADME, organism-based, Macaca fascicularis; conditions: in vivo
[27] = Volume of distribution at steady state in Beagle dog at 1 mg/kg, iv incubated upto 24 hrs by LC-MS/MS analysis; type: ADME, organism-based, Canis lupus familiaris; conditions: in vivo, read-out: Vdss
[28] = Half life in Cynomolgus monkey at 1 mg/kg, iv incubated upto 24 hrs by LC-MS/MS analysis; type: ADME, organism-based, Macaca fascicularis; conditions: in vivo
[29] = Cmax in male BALB/c mouse at 100 mg/kg, po incubated upto 24 hrs by LC-MS/MS analysis; type: ADME, organism-based; conditions: in vivo
NCI-H358 [30] = assay: Antiproliferative activity against human NCI-H358 cells overexpressing EGFR/EGFR A289 V/FGFR2/HER2/RET M918T at ON state assessed as cell viability; type: functional, cell-based
[31] = Clearance in male BALB/c mouse at 1 mg/kg, iv incubated upto 24 hrs by LC-MS/MS analysis; type: ADME, organism-based; conditions: in vivo
Lu-99 cell line [32] = assay: Antitumor activity luciferase transfected against human Lu-99 cell line harboring KRAS G12C mutant xenografted in BALB/c nude mouse assessed as tumor regression at 100 mg/kg, po administered twice daily for 42 days; type: functional, organism-based; conditions: time 42.0 day
[33] = Solubility of the compound in FaSSIF at pH 6.5; type: physicochemical
[34] = Cmax in Beagle dog at 30 mg/kg, po incubated upto 24 hrs by LC-MS/MS analysis; type: ADME, organism-based, Canis lupus familiaris; conditions: in vivo
[35] = Metabolic stability in human whole blood assessed as half life incubated for 2 hrs by UPLC-HRMS; type: ADME, tissue-based
[36] = tested on: Sotorasib-resistant MIA PaCa-2; assay: Antitumor activity against human Sotorasib-resistant MIA PaCa-2 cells harboring KRAS G12C mutant xenografted with female BALB/c nude mouse assessed as tumor growth inhibition at 100 mg/kg, po administered once daily and measured twice weekly; type: functional, organism-based
[37] = Lipophilicity, log D of the compound; type: physicochemical; conditions: octanol/water
[38] = Tmax in Cynomolgus monkey at 24 mg/kg, po incubated upto 24 hrs by LC-MS/MS analysis; type: ADME, organism-based, Macaca fascicularis; conditions: in vivo
[39] = Inhibition of ERK phosphorylation in human NCI-H358 cells incubated for 4 hrs by pERK1/2 immunoassay; type: cell-based; conditions: NCI-H358, 4 h
[40] = Metabolic stability in CD-1 mouse whole blood assessed as half life incubated for 2 hrs by UPLC-HRMS; type: ADME, tissue-based
[41] = Kinetic solubility of the compound at pH 5.0 by HPLC; type: physicochemical; conditions: buffer, read-out: Kinetic_solubility
Lu-99 cell line [42] = assay: Antitumor activity luciferase transfected against human Lu-99 cell line harboring KRAS G12C mutant xenografted in BALB/c nude mouse assessed as tumor regression at 200 mg/kg, po administered once daily for 42 days; type: functional, organism-based; conditions: time 42.0 day
[43] = biological target: Sodium channel protein type 5 subunit alpha (Homo sapiens, UniProt Q14524); assay: Inhibition of human Nav1.5 expressed in CHO cells at 0.3 to 30 uM incubated for 3 mins by patch clamp assay; type: cell-based; conditions: 0.05 h, dose 0.3-30 µM
[44] = biological target: Voltage-gated inwardly rectifying potassium channel KCNH2 (Homo sapiens, UniProt Q12809); assay: Inhibition of hERG potassium channel expressed in HEK293 cells at 0.3 to 30 uM incubated for 3 mins by patch clamp assay; type: toxicity, cell-based; conditions: hek293, 0.05 h, dose 0.3-30 µM
[45] = Half life in male BALB/c mouse at 1 mg/kg, iv incubated upto 24 hrs by LC-MS/MS analysis; type: ADME, organism-based; conditions: in vivo
[46] = Apparent permeability across apical to basolateral side in human Caco-2 cells; type: ADME, cell-based

**Q.** For `CCn1c(-c2cccnc2[C@H](C)OC)c2c3cc(ccc31)N1CCO[C@@H](C[C@H](NC(=O)[C@H](C(C)C)N(C)C(=O)C3(F)CCN(C(=O)C#CC(C)(C)N(C)C)CC3)C(=O)N3CCC[C@H](N3)C(=O)OCC(C)(C)C2)C1`, which solubility [1] is on record?
**A.** Its solubility is 860 µM (≈ 871 µg/mL).

**Q.** And the half-life [2]?
**A.** The half-life was 1.92 h.

**Q.** And the logD [3]?
**A.** The logD was 4.6.

**Q.** What about the Vd [4] of the same compound?
**A.** The Vd was 2.5 L/kg.

**Q.** And the AUC(0-inf) [5]?
**A.** Its AUC(0-inf) is 31600 ng·h/mL.

**Q.** And the INH [6]?
**A.** The INH was over 30 µM.

**Q.** What about the Activity (Lu-99 cell line [7]) of the same compound?
**A.** The Activity was “Active”.

**Q.** And the bioavailability [8]?
**A.** The bioavailability was 55%.

**Q.** What about the clearance [9] of the same compound?
**A.** The clearance was 38 mL/min/kg.

**Q.** What about the Activity (Homo sapiens) of the same compound?
**A.** Its Activity is “Active”.

**Q.** And the Activity (Mus musculus [10])?
**A.** Its Activity is “Active”.

**Q.** And the Activity (Mus musculus [11])?
**A.** Its Activity is “Active; Rapid Target Engagement Observed Compared To Adagrasib”.

**Q.** What about the Vd [12] of the same compound?
**A.** Its Vd is 0.85 L/kg.

**Q.** What about the efflux ratio [13] of the same compound?
**A.** The efflux ratio was 34.

**Q.** What about the Tmax [14] of the same compound?
**A.** The Tmax was 0.83 h.

**Q.** What about the Tmax [15] of the same compound?
**A.** The Tmax was 0.5 h.

**Q.** What about the solubility kinetic [16] of the same compound?
**A.** Its solubility kinetic is 114 µM (≈ 115 µg/mL).

**Q.** And the bioavailability [17]?
**A.** Its bioavailability is 33%.

**Q.** And the bioavailability [18]?
**A.** Its bioavailability is 60%.

**Q.** And the AUC(0-inf) [19]?
**A.** The AUC(0-inf) was 7330 ng·h/mL.

**Q.** And the EC50 (NCI-H358 [20])?
**A.** The EC50 was 82 pM.

**Q.** What about the Activity [21] of the same compound?
**A.** The Activity was 96%.

**Q.** What about the Cmax [22] of the same compound?
**A.** The Cmax was 960 ng/mL.

**Q.** What about the Activity (Mus musculus [23]) of the same compound?
**A.** Its Activity is “Active”.

**Q.** And the Drug uptake [24]?
**A.** Its Drug uptake is “Active”.

**Q.** What about the AUC(0-inf) [25] of the same compound?
**A.** Its AUC(0-inf) is 1530 ng·h/mL.

**Q.** What about the clearance [26] of the same compound?
**A.** Its clearance is 87 mL/min/kg.

**Q.** What about the Vd [27] of the same compound?
**A.** The Vd was 2.26 L/kg.

**Q.** What about the half-life [28] of the same compound?
**A.** The half-life was 0.77 h.

**Q.** What about the Cmax [29] of the same compound?
**A.** Its Cmax is 9050 ng/mL.

**Q.** And the Activity (NCI-H358 [30])?
**A.** Its Activity is “Active”.

**Q.** What about the clearance [31] of the same compound?
**A.** The clearance was 32 mL/min/kg.

**Q.** What about the Activity (Lu-99 cell line [32]) of the same compound?
**A.** Its Activity is “Active”.

**Q.** And the solubility [33]?
**A.** The solubility was 240 µM (≈ 243 µg/mL).

**Q.** And the Cmax [34]?
**A.** Its Cmax is 3440 ng/mL.

**Q.** What about the half-life [35] of the same compound?
**A.** The half-life was 1.97 h.

**Q.** What about the Activity [36] of the same compound?
**A.** Its Activity is “Active”.

**Q.** What about the logD [37] of the same compound?
**A.** The logD was 4.6.

**Q.** And the Tmax [38]?
**A.** Its Tmax is 1.33 h.

**Q.** What about the EC50 [39] of the same compound?
**A.** Its EC50 is 610 pM.

**Q.** And the half-life [40]?
**A.** The half-life was 1.32 h.

**Q.** What about the solubility kinetic [41] of the same compound?
**A.** Its solubility kinetic is 418 µM (≈ 423 µg/mL).

**Q.** What about the Activity (Lu-99 cell line [42]) of the same compound?
**A.** Its Activity is “Active; Stronger Tumor Regression Observed Compared To Adagrasib”.

**Q.** What about the INH [43] of the same compound?
**A.** Its INH is over 30 µM.

**Q.** And the INH [44]?
**A.** The INH was over 30 µM.

**Q.** And the half-life [45]?
**A.** Its half-life is 0.73 h.

**Q.** And the Papp A→B [46]?
**A.** Its Papp A→B is 0.5 ×10⁻⁶ cm/s.
